Assay results as given in US10301320B2, “Compositions and methods of modulating 15-PGDH activity” (CASE WESTERN RESERVE UNIVERSITY, priority 2012, dated 2019).
“Also recorded” adds a separate entry of the source.

Experiments:
[1] = system: 15-PGDH mRNA in colon cancer cell lines; assay: 15-PGDH mRNA levels by real-time PCR; assay type: cell-based
Excerpt: In these studies parental cell lines (not containing the 15-PGDH-luciferase reporter) are employed.

Hepatocyte stability = assay type: in vitro ADME; details: result in words
Protocol: Time to inhibition refers to the time needed to inhibit the generation of NADH by 15-PGDH from the moment with drug is added into the reaction mix. Delta™ refers to the shift in melting temperature of recombinant 15-PGDH in the presence of drug (with cofactor NADH also present). Concentration of Full Cell Line Reporter Induction refers to the concentration of drug that needs to be added to reporter cell line to achieve maximal induction of the 15-PGDH-luciferase gene fusion reporter cassette, as measured by luciferase assays. Hepatocyte stability refers to the half-life of compound in the presence of hepatocytes in culture. Toxicity refers to the concentration of compound needed to decrease cell numbers in a cell culture assay.

[2] = system: CD45.2 marked C57BL/6J donor marrow in lethally irradiated CD45.1 mice; assay: Competitive bone marrow transplant, chimerism; assay type: in vivo; details: donor 5 mg/kg IP daily for 3 doses; weeks 12 and 16
Protocol: On day 3 mice were sacrificed, marrow flushed and mixed at a 1:1 ratio with vehicle treated CD45.1 marrow. 2 million whole BM cells were injected into the tail vein of lethally irradiated CD45.1 mice and percent chimerism measured via flow cytometry at weeks 8, 12, 16.

C57BL/6J mice = assay: Survival after 11 Gy irradiation and bone marrow allograft; assay type: in vivo
Excerpt: The experimental design is depicted in FIG. 50.
Under the conditions of the mouse colony during this study, control mice receiving 100,000-500,000 cells are all dead between days 4-13 of study. […] Such activity would be of particular utility in settings, such as transplantation with umbilical cord stem cells, in which donor cell numbers are limited.

FVB male mice = assay: Dextran sodium sulfate (DSS) induced colitis; assay type: in vivo

For CCCC[S+]([O-])c1sc2nc(-c3cccs3)cc(-c3ccccc3)c2c1N (centres unmarked) [SW033291, 2-(butylsulfinyl)-4-phenyl-6-(thiophen-2-yl)thieno[2,3-b]pyridin-3-amine], the “15-PGDH mRNA levels” value ([1]; V503 cells) was “slight increase in 15-PGDH mRNA”, the “15-PGDH mRNA levels” value ([1]; treated colon cancer cell lines, real-time PCR) was “do not in general alter 15-PGDH mRNA levels” and the Hepatocyte stability (Hepatocyte stability) was “Stable > couple hrs”. For the same molecule, the “Percent blood chimerism of CD45.2 marked cells” value [2] was “significantly increased”, the “Survival of transplanted mice, in words” value (C57BL/6J mice; 5 mg/kg IP twice daily) was “promoted survival of mice receiving a bone marrow transplant” and the “Mouse survival (number of surviving mice)” value (“Mouse survival” for short) (C57BL/6J mice; 1 × 10^5 cells, Day 1) was 3. The “Mouse survival” value (C57BL/6J mice; 1 × 10^5 cells, Day 2) was 3, the “Mouse survival” value (C57BL/6J mice; 1 × 10^5 cells, Day 3) was 3 and the “Mouse survival” value (C57BL/6J mice; 1 × 10^5 cells, Day 4) was 2. For the same molecule, the “Mouse survival” value (C57BL/6J mice; 1 × 10^5 cells, Day 5) was 1, the “Mouse survival” value (C57BL/6J mice; 1 × 10^5 cells, Day 6) was 0 and the “Mouse survival” value (C57BL/6J mice; 2 × 10^5 cells, Day 1) was 3. The “Mouse survival” value (C57BL/6J mice; 2 × 10^5 cells, Day 2) was 3, the “Mouse survival” value (C57BL/6J mice; 2 × 10^5 cells, Day 3) was 3 and the “Mouse survival” value (C57BL/6J mice; 2 × 10^5 cells, Day 4) was 3. The “Mouse survival” value (C57BL/6J mice; 2 × 10^5 cells, Day 5) was 3, the “Mouse survival” value (C57BL/6J mice; 2 × 10^5 cells, Day 6) was 2 and the “Mouse survival” value (C57BL/6J mice; 2 × 10^5 cells, Day 7) was 2. The “Mouse survival” value (C57BL/6J mice; 2 × 10^5 cells, Day 8) was 2, the “Mouse survival” value (C57BL/6J mice; 2 × 10^5 cells, Day 9) was 2 and the “Mouse survival” value (C57BL/6J mice; 2 × 10^5 cells, Day 10) was 2. The “Mouse survival” value (C57BL/6J mice; 2 × 10^5 cells, Day 11) was 2, the “Mouse survival” value (C57BL/6J mice; 2 × 10^5 cells, Day 12) was 1 and the “Mouse survival” value (C57BL/6J mice; 2 × 10^5 cells, Day 13) was 0. The “Mouse survival” value (C57BL/6J mice; 5 × 10^5 cells, Day 1) was 3, the “Mouse survival” value (C57BL/6J mice; 5 × 10^5 cells, Day 2) was 3 and the “Mouse survival” value (C57BL/6J mice; 5 × 10^5 cells, Day 3) was 3. The “Mouse survival” value (C57BL/6J mice; 5 × 10^5 cells, Day 4) was 3, the “Mouse survival” value (C57BL/6J mice; 5 × 10^5 cells, Day 5) was 3 and the “Mouse survival” value (C57BL/6J mice; 5 × 10^5 cells, Day 6) was 3. The “Mouse survival” value (C57BL/6J mice; 5 × 10^5 cells, Day 7) was 3, the “Mouse survival” value (C57BL/6J mice; 5 × 10^5 cells, Day 8) was 2 and the “Mouse survival” value (C57BL/6J mice; 5 × 10^5 cells, Day 9) was 2. For the same molecule, the “Mouse survival” value (C57BL/6J mice; 5 × 10^5 cells, Day 10) was 2, the “Mouse survival” value (C57BL/6J mice; 5 × 10^5 cells, Day 11) was 2 and the “Mouse survival” value (C57BL/6J mice; 5 × 10^5 cells, Day 12) was 2. The “Mouse survival” value (C57BL/6J mice; 5 × 10^5 cells, Day 13) was 2, the “Mouse survival” value (C57BL/6J mice; 5 × 10^5 cells, Day 19) was 2 and the “Body weight versus control, in words” value (FVB male mice; 5 mg/kg IP twice daily) was “greater weight at all time points; also recorded: greater body weight”. The Ulcer formation (FVB male mice; colonoscopy days 8, 11, 15) was “prevents two-thirds of ulcer formation” and the “Colon length versus control, in words” value (FVB male mice; day 22) was “greater colon lengths”.
